13 molecules from patent US9637483B2, “Heterocyclic compound” (TAKEDA PHARMACEUTICAL COMPANY LIMITED, priority 2013, dated 2017) can be followed below.

Common to all, as to format: biochemical
The target of one test is T1, JAK1 (Homo sapiens, UniProt P23458).
T1 construct: purchased Invitrogen
Nature of the test: JAK1 enzyme inhibition test (LANCE method). Conditions: 1 μM test compound; read-out: JAK1 enzyme inhibitory activity (%, 1 μM). The method in brief: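 TR-FRET (LANCE) with ULight-JAK1 peptide (300 nM working solution) and ATP (150 μM working solution) in HEPES pH 7.5, MgCl2, EGTA, DTT buffer; 1 h at room temperature. EDTA stop plus Eu-anti-phosphotyrosine antibody, 665 nm read after 1 h. Inhibition relative to enzyme-free wells as 100%.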
(In TR-FRET formats the signal depends on donor and acceptor labels being close together.)

The target in another test is T2, JAK2 (Homo sapiens, UniProt O60674).
T2 construct: purchased Invitrogen
The test is described as follows: JAK2 enzyme inhibition test (LANCE method). Conditions: 1 μM test compound; read-out: JAK2 enzyme inhibitory activity (%, 1 μM). An outline of the steps:
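Recombinant JAK2 (6 ng/mL solution) phosphorylated ULight-JAK1 peptide (300 nM solution) with ATP (45 μM solution) in pH 7.5 HEPES/MgCl2/DTT buffer for 1 hr at room temperature. After EDTA stop and europium anti-phosphotyrosine antibody for 1 hr, TR-FRET read at 665 nm; inhibition relative to enzyme-free wells as 100%.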

For a further test, the target named is T3, JAK3 (Homo sapiens, UniProt P52333).
T3 construct: purchased Invitrogen
T3 sequence (P52333 1-1124): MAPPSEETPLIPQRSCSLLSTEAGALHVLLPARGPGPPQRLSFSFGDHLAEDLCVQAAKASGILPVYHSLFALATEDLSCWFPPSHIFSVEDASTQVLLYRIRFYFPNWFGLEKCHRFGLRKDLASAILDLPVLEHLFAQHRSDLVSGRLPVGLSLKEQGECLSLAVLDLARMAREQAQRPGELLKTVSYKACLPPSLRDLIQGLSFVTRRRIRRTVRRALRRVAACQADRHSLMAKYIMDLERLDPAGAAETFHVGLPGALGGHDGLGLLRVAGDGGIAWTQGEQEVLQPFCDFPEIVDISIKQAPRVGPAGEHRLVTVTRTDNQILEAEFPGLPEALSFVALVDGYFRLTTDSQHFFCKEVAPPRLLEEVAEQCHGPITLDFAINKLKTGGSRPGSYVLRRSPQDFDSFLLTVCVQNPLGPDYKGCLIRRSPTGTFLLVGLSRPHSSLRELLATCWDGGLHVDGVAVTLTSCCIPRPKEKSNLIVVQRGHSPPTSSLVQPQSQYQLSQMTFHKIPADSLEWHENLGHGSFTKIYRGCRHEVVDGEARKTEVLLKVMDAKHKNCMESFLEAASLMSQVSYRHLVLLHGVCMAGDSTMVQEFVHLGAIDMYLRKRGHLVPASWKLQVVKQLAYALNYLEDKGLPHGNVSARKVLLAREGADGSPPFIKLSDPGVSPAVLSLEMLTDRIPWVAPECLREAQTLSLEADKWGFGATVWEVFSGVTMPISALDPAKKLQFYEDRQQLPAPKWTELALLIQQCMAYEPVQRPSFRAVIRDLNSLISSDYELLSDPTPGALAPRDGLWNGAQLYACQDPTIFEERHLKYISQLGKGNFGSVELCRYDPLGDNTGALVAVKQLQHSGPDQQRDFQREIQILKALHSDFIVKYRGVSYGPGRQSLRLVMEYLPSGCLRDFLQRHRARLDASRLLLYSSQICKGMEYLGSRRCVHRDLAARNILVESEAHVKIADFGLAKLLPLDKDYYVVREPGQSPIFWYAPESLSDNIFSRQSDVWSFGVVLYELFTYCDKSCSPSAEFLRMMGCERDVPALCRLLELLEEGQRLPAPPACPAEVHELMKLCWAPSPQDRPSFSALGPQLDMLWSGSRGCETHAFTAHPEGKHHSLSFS
The test is described as follows: JAK3 enzyme inhibition test (LANCE method). Conditions: 1 μM test compound; read-out: JAK3 enzyme inhibitory activity (%, 1 μM). The method in brief:
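Recombinant JAK3 (12 ng/mL solution) with ULight-JAK1 peptide (300 nM solution) and ATP (15 μM solution) in HEPES pH 7.5 buffer, 1 h at room temperature. EDTA stop with Eu-anti-phosphotyrosine antibody; TR-FRET at 665 nm. Inhibition relative to enzyme-free wells as 100%.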

Another test has as its target T4, TYK2 (Homo sapiens, UniProt P29597).
T4 construct: purchased Invitrogen
The test is described as follows: TYK2 enzyme inhibition test (LANCE method). Conditions: 1 μM test compound; read-out: TYK2 enzyme inhibitory activity (%, 1 μM). An outline of the steps: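 Recombinant TYK2 (375 ng/mL working solution) with ULight-JAK1 peptide (300 nM working solution) and ATP (30 μM working solution) in HEPES pH 7.5 buffer with MgCl2, EGTA, DTT, Tween20, BSA, reacted 1 h at RT. EDTA-stopped, Eu-anti-phosphotyrosine TR-FRET read at 665 nm; inhibition relative to enzyme-free wells as 100%.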

T2 sequence (O60674 whole entry): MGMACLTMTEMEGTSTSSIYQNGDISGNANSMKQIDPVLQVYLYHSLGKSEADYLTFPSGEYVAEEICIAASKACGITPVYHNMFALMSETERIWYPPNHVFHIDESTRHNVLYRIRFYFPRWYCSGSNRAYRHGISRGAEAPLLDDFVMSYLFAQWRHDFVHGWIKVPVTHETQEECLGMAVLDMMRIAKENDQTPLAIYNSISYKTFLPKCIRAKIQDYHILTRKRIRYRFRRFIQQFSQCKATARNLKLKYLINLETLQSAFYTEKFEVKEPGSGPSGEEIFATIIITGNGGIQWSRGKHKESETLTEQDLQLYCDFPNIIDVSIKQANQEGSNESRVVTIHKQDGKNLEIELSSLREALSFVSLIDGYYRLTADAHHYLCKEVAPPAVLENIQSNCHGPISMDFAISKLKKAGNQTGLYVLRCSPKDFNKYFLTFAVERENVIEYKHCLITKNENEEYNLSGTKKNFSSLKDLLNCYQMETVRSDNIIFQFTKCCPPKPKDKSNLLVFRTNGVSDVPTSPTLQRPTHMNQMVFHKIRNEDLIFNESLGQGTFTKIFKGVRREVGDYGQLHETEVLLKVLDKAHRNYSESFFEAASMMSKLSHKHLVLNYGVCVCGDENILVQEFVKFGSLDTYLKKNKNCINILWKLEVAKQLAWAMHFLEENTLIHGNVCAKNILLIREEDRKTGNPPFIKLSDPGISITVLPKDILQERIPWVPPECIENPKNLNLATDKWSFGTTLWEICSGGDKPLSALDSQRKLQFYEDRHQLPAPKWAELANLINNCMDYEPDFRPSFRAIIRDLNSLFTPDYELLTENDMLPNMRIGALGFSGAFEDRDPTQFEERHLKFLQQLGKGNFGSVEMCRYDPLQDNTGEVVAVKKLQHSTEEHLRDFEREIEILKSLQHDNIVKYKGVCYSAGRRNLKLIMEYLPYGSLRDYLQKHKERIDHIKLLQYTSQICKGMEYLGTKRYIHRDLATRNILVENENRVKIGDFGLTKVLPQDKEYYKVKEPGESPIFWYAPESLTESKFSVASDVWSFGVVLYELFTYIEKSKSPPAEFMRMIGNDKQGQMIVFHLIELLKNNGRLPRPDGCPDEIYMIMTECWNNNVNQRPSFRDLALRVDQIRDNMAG
T1 sequence (P23458 whole entry): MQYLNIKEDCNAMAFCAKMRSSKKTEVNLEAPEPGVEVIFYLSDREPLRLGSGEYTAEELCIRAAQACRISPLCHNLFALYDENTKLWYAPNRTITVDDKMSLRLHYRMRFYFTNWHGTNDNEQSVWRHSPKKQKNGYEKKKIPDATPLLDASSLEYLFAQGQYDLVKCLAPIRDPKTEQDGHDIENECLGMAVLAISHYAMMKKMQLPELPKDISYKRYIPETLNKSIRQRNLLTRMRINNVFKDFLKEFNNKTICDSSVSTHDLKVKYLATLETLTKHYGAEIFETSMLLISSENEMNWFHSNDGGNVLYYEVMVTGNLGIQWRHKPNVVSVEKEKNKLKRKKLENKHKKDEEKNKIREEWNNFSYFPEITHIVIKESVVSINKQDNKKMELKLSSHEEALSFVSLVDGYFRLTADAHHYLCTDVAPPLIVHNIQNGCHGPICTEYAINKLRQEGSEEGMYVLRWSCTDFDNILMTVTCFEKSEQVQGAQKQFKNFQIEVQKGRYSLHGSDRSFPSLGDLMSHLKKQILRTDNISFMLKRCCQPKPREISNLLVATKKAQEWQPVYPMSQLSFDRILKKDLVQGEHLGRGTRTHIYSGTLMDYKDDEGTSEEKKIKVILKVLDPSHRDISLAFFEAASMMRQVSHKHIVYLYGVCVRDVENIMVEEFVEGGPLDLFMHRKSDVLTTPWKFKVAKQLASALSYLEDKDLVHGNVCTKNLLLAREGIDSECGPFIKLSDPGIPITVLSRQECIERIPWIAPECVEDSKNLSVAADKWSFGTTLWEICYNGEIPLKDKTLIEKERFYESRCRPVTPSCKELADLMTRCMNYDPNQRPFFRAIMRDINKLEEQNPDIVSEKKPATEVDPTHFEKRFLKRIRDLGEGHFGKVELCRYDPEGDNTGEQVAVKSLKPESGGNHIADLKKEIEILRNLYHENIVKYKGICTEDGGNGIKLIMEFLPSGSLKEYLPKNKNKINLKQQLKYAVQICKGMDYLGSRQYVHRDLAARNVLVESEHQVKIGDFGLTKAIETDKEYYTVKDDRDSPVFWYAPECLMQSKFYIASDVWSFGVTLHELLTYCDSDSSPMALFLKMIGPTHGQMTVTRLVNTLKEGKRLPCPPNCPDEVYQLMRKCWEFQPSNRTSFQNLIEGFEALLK
T4 sequence (P29597 whole entry): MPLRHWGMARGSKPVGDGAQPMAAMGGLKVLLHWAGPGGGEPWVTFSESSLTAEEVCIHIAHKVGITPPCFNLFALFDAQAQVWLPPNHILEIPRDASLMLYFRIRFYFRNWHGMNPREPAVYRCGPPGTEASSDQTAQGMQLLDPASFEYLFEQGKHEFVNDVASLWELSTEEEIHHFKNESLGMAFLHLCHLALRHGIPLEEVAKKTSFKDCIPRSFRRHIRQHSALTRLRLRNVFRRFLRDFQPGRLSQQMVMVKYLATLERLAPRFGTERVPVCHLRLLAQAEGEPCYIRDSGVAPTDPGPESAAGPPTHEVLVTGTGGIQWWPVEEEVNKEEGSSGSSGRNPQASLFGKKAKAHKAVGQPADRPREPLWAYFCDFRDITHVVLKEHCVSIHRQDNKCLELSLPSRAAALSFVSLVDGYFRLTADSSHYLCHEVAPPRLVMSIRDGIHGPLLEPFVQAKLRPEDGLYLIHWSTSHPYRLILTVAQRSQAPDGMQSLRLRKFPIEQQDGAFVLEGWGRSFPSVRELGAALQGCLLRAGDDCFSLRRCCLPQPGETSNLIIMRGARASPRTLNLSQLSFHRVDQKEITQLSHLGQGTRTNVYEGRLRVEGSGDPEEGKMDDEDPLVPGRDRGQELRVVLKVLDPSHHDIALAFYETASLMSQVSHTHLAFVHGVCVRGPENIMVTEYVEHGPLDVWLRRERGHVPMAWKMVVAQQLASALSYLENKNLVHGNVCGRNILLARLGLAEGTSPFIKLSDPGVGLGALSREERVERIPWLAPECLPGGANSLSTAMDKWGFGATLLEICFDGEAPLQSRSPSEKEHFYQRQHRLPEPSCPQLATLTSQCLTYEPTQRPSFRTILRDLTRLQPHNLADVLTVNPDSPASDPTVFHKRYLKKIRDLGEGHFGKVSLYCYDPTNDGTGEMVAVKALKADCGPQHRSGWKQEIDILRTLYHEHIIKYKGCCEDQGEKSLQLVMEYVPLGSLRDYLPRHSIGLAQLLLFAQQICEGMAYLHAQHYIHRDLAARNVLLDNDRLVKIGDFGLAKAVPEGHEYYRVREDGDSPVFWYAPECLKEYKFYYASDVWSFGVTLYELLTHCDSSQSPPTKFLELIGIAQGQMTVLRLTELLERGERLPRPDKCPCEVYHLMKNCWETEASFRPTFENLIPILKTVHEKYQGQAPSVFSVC

As to `Cn1nc(-c2cn(C(C3CC3)C3CC3)c(=O)c3c(N)n[nH]c23)cc1C(C)(C)O` [Example 174, 3-amino-5-(dicyclopropylmethyl)-7-(5-(2-hydroxypropan-2-yl)-1-methyl-1H-pyrazol-3-yl)-1,5-dihydro-4H-pyrazolo[4,3-c]pyridin-4-one], the inhibition at 1 µM at JAK1 was 99%; on JAK2, 98%; at JAK3, 99%; at TYK2, 98%.
Consider `CC(C)[C@H](C)n1cc(-c2cc(N3CCS(=O)(=O)CC3)n(C)n2)c2[nH]nc(N)c2c1=O` [Example 12, 3-amino-7-(5-(1,1-dioxidothiomorpholin-4-yl)-1-methyl-1H-pyrazol-3-yl)-5-((2S)-3-methylbutan-2-yl)-1,5-dihydro-4H-pyrazolo[4,3-c]pyridin-4-one], for which the inhibition at 1 µM at JAK1 worked out at 93%; on JAK2 it was 99%; on JAK3, 99%; on TYK2, 100%.
On to `COC1(c2cc(-c3cn(C(C4CC4)C4CC4)c(=O)c4c(N)n[nH]c34)nn2C)CN(S(=O)(=O)C(C)C)C1` [Example 90, 3-amino-5-(dicyclopropylmethyl)-7-(5-(1-(isopropylsulfonyl)-3-methoxyazetidin-3-yl)-1-methyl-1H-pyrazol-3-yl)-1,5-dihydro-4H-pyrazolo[4,3-c]pyridin-4-one], for which the inhibition at 1 µM on JAK1 was 96%; on JAK2 it was 99%; on JAK3 it was 99%; on TYK2, 100%.
Consider `CN(C[C@H]1CCCN1c1cc(-c2cn(C(C3CC3)C3CC3)c(=O)c3c(N)n[nH]c23)nn1C)C(=O)OC(C)(C)C` [Example 171, tert-butyl(((2R)-1-(3-(3-amino-5-(dicyclopropylmethyl)-4-oxo-4,5-dihydro-1H-pyrazolo[4,3-c]pyridin-7-yl)-1-methyl-1H-pyrazol-5-yl)pyrrolidin-2-yl)methyl)methylcarbamate], for which the inhibition at 1 µM on JAK1 amounted to 93%; on JAK2, 94%; on JAK3 it was 98%; at TYK2, 98%.
With `COC(C)(C)c1cc(-c2cn(-c3c(F)cccc3C#N)c(=O)c3c(N)n[nH]c23)nn1C` [Example 121, 2-(3-amino-7-(5-(2-methoxypropan-2-yl)-1-methyl-1H-pyrazol-3-yl)-4-oxo-1,4-dihydro-5H-pyrazolo[4,3-c]pyridin-5-yl)-3-fluorobenzonitrile], the inhibition at 1 µM on JAK1 was found to be 98%; at JAK2, 98%; at JAK3 it was 97%; on TYK2 it was 100%.
As to `COC[C@H]1CCCN1c1cc(-c2cn(-c3c(F)cccc3F)c(=O)c3c(N)n[nH]c23)nn1C` [Example 128, 3-amino-5-(2,6-difluorophenyl)-7-(5-((2R)-2-(methoxymethyl)pyrrolidin-1-yl)-1-methyl-1H-pyrazol-3-yl)-1,5-dihydro-4H-pyrazolo[4,3-c]pyridin-4-one], the inhibition at 1 µM stood at 98% on JAK1, 98% on JAK2, 99% at JAK3 and 100% at TYK2.
`CC(C)C(C)n1cc(-c2cc(C(C)(C)O)n(C)n2)c2[nH]nc(N)c2c1=O` (stereo not shown) [Example 2, 3-amino-7-(5-(2-hydroxypropan-2-yl)-1-methyl-1H-pyrazol-3-yl)-5-(3-methylbutan-2-yl)-1,5-dihydro-4H-pyrazolo[4,3-c]pyridin-4-one]: the inhibition at 1 µM turned out to be 97% on JAK1, 98% on JAK2, 99% at JAK3 and 99% at TYK2.
With `COC1(c2cc(-c3cn([C@@H](C)C4CC4)c(=O)c4c(N)n[nH]c34)nn2C)CN(C(=O)C(C)C)C1` [Example 97, 3-amino-5-((1S)-1-cyclopropylethyl)-7-(5-(1-isobutyryl-3-methoxyazetidin-3-yl)-1-methyl-1H-pyrazol-3-yl)-1,5-dihydro-4H-pyrazolo[4,3-c]pyridin-4-one], the inhibition at 1 µM on JAK1 was found to be 97%; at JAK2, 99%; at JAK3, 99%; on TYK2, 100%.
As to `CO[C@H]1CCN(c2cc(-c3cn(C(C4CC4)C4CC4)c(=O)c4c(N)n[nH]c34)nn2C)C1` [Example 167, 3-amino-5-(dicyclopropylmethyl)-7-(5-((3S)-3-methoxypyrrolidin-1-yl)-1-methyl-1H-pyrazol-3-yl)-1,5-dihydro-4H-pyrazolo[4,3-c]pyridin-4-one], the inhibition at 1 µM turned out to be 100% at JAK1, 99% at JAK2, 100% on JAK3 and 101% at TYK2.
Turning to `CC(C)[C@H](C)n1cc(-c2cc(N3CCCCC3=O)n(C)n2)c2[nH]nc(N)c2c1=O` [Example 48, 3-amino-5-((2S)-3-methylbutan-2-yl)-7-(1-methyl-5-(2-oxopiperidin-1-yl)-1H-pyrazol-3-yl)-1,5-dihydro-4H-pyrazolo[4,3-c]pyridin-4-one], the inhibition at 1 µM on JAK1 was 94%; on JAK2, 97%; at JAK3 it was 100%; on TYK2, 99%.
For the molecule `COC1(c2cc(-c3cn(-c4c(F)cccc4F)c(=O)c4c(N)n[nH]c34)nn2C)CN(C(=O)C(C)C)C1` [Example 130, 3-amino-5-(2,6-difluorophenyl)-7-(5-(1-isobutyryl-3-methoxyazetidin-3-yl)-1-methyl-1H-pyrazol-3-yl)-1,5-dihydro-4H-pyrazolo[4,3-c]pyridin-4-one], the inhibition at 1 µM on JAK1 was found to be 96%; at JAK2, 98%; at JAK3, 99%; at TYK2, 101%.
The like results for `CC(C)[C@H](C)n1cc(-c2cc(CN3CCS(=O)(=O)CC3)n(C)n2)c2[nH]nc(N)c2c1=O` [Example 47, 3-amino-7-(5-((1,1-dioxidothiomorpholin-4-yl)methyl)-1-methyl-1H-pyrazol-3-yl)-5-((2S)-3-methylbutan-2-yl)-1,5-dihydro-4H-pyrazolo[4,3-c]pyridin-4-one] were, in that order, 93%, 98%, 100% and 99%.
Regarding `CC(C)[C@H](C)n1cc(-c2cc(N3CCC(F)(F)C3)n(C)n2)c2[nH]nc(N)c2c1=O` [Example 106, 3-amino-7-(5-(3,3-difluoropyrrolidin-1-yl)-1-methyl-1H-pyrazol-3-yl)-5-((2S)-3-methylbutan-2-yl)-1,5-dihydro-4H-pyrazolo[4,3-c]pyridin-4-one], the inhibition at 1 µM at JAK1 came out at 97%; at JAK2 it was 99%; on JAK3 it was 99%; on TYK2, 100%.
